From ChEMBL document CHEMBL2380220, “Cytotoxic azaphilone alkaloids from Chaetomium globosum TY1” (Bioorg Med Chem Lett, 2013)

Tested on: HepG2
Assay: Cytotoxicity against human HepG2 cells after 72 hrs by SRB assay
Type: functional, cell-based
Details: HepG2, 72 h

## CC[C@H](C)/C=C/C1=CC2=C(Cl)C(=O)[C@@]3(C)OC(=O)C(C(=O)[C@H](C)[C@@H](C)O)=C3C2=CO1
  IC50: 35.3 µM

## C/C=C(\C)C(=O)C1=C2C3=CN(CCCC(=O)O)C(/C=C/[C@@H](C)CC)=CC3=C(Cl)C(=O)[C@@]2(C)OC1=O
  IC50: 1.7 µM

## C/C=C(\C)C(=O)C1=C2C3=CN(CCO)C(/C=C/[C@@H](C)CC)=CC3=C(Cl)C(=O)[C@@]2(C)OC1=O
  IC50: 19.8 µM

## CC[C@H](C)/C=C/C1=CC2=C(Cl)C(=O)[C@@]3(C)OC(=O)C(C(=O)[C@H](C)[C@@H](C)O)=C3C2=CN1CCO
  IC50: 53.4 µM

## CC[C@H](C)/C=C/C1=CC2=C(Cl)C(=O)[C@@]3(C)OC4(O)C(C(=O)O[C@@H](C)[C@@H]4C)C3C2=CO1 (some centres not stated)
  IC50: > 100 µM

## CC[C@@]1(O)C(=O)OCc2c1cc1n(c2=O)Cc2cc3ccccc3nc2-1 [CAMPTOTHECIN]
  IC50: 32.3 µM

## C/C=C(\C)C(=O)C1=C2C3=COC(/C=C/[C@@H](C)CC)=CC3=C(Cl)C(=O)[C@@]2(C)OC1=O [CHAETOVIRIDIN E]
  IC50: 40.6 µM
